From patent US5091399A, “Antimicrobial compounds and methods of use” (Rohm and Haas Company, priority 1990, dated 1992)
Values after ≈ are worked out from the molar mass of the structure shown.

How the values were obtained:
Experiment in all cases: MIC test (biocide), serial dilution in Trypticase Soy Broth
Type in all cases: cell-based
[1] = tested on: Aspergillus niger; settings: pH 7.0, starting concentration 500 ppm
Protocol: (§1) Efficacy tests against eight fungi and four bacteria was carried out. A minimum inhibitory concentration (MIC) value was obtained using Trypticase Soy Broth, pH 7.0, and by preparing serial dilutions with a starting concentration of 500 ppm. A stock solution of the test compound was made in dimethyl sulfoxide (DMSO) or acetone. The MIC's of the compounds of this invention against the test organisms are shown in Table 3. |Test was run in Trypticase Soy Broth, pH 7.0 Starting concentration = 500

[2] = tested on: Aureobasidium pullulans; settings: pH 7.0, starting concentration 500 ppm
Protocol: as §1

[3] = tested on: Escherichia coli; settings: pH 7.0, starting concentration 500 ppm
Protocol: as §1

[4] = tested on: Pseudomonas aeruginosa; settings: pH 7.0, starting concentration 500 ppm
Protocol: as §1

[5] = tested on: Chorella; settings: pH 7.0, starting concentration 500 ppm
Protocol: as §1

[6] = tested on: Staphylococcus aureus; settings: pH 7.0, starting concentration 500 ppm
Protocol: as §1

[7] = tested on: Pseudomonas fluorescens; settings: pH 7.0, starting concentration 500 ppm
Protocol: as §1

[8] = tested on: Chaetomium globosum; settings: pH 7.0, starting concentration 500 ppm
Protocol: as §1

[9] = tested on: Penicillium funiculosum; settings: Talaromyces funiculosus, pH 7.0, starting concentration 500 ppm
Protocol: as §1

[10] = tested on: Rhodotorula rubra; settings: pH 7.0, starting concentration 500 ppm
Protocol: as §1

[11] = tested on: Cladosporium resinae; settings: Amorphotheca resinae, pH 7.0, starting concentration 500 ppm
Protocol: as §1

[12] = tested on: Gleophyllum trabeum; settings: pH 7.0, starting concentration 500 ppm
Protocol: as §1

[13] = tested on: Saccharomyces cerevisiae; settings: pH 7.0, starting concentration 500 ppm
Protocol: as §1

Row | Structure (SMILES) | MIC [1] [µg/mL] | MIC [2] [µg/mL] | MIC [3] [µg/mL] | MIC [4] [µg/mL] | MIC [5] [µg/mL] | MIC [6] [µg/mL] | MIC [7] [µg/mL] | MIC [8] [µg/mL] | MIC [9] [µg/mL] | MIC [10] [µg/mL] | MIC [11] [µg/mL] | MIC [12] [µg/mL] | MIC [13] [µg/mL]
1 | CCCCCCCCn1sc(Sc2nc3ccccc3s2)c(Cl)c1=O [Compound 2, [4-chloro-2-(n-octyl)-4-isothiazolin-3-on-5-yl]-(benzothiazol-2'-yl)sulfide] | 63 (≈ 153 µM) | 32 (≈ 77.5 µM) | > 250 | > 250 | 4 (≈ 9.68 µM) | 1 (≈ 2.42 µM) |  |  |  |  |  |  | 
2 | Cc1c(Sc2nc3ccccc3s2)sn(-c2ccc(Cl)cc2)c1=O [Compound 3, [4-methyl-2-(4-chlorophenyl)-4-isothiazolin-3-on-5-yl]-(benzothiazol-2'-yl)sulfide] | 12.5 (≈ 32 µM) |  |  | 12.5 (≈ 32 µM) |  |  | 0.4 (≈ 1.02 µM) |  |  |  |  |  | 
3 | Cn1sc(Sc2nc3ccccc3s2)cc1=O [Compound 1, (2-methyl-4-isothiazolin-3-on-5-yl)-(benzothiazol-2'-yl)sulfide] | 8 (≈ 28.5 µM) | 16 (≈ 57.1 µM) | 500 (≈ 1780 µM) | > 500 |  | 4 (≈ 14.3 µM) | 8 (≈ 28.5 µM) | 32 (≈ 114 µM) | 8 (≈ 28.5 µM) | 16 (≈ 57.1 µM) | 1 (≈ 3.57 µM) | < 0.1 | 8 (≈ 28.5 µM)
